pIC50: −log10 of the molar value.
Columns and labels:
Raw264.7 p110 γ = target: T1, Raw264.7 p110 γ (Mus musculus, UniProt Q9JHG7); test: Raw264.7 p110 γ cellular assay (phospho-AKT); assay type: cell-based; conditions: serum-starved RAW264.7 cells stimulated with C5a
T1 construct: reduction of phospho-AKT in stimulated RAW 264.7 cells; endogenous in cells; host or cells: RAW264.7 macrophages
Source text: (b) PI3K-γ Selective Assay
Briefly, serum-starved PAW264.7 cells are stimulated with a known GPCR agonist C5a. […] Cells can be treated with test compounds prior to, simultaneously with, or subsequent to the stimulation by C5a. RAW 264.7 cells respond to the complement component fragment C5a through activation of the C5a receptor, and the C5a receptor activates macrophages and induces cell migration.

PI3K γ = target: T2, PI3K γ (Homo sapiens, UniProt P48736); test: PI3-Kinase Promega ADP-Glo Max assay; assay type: biochemical; conditions: 40 nM kinase, 3 mM ATP, 500 uM diC8-PtdInsP
T2 construct: purchased Millipore
T2 sequence (P48736 whole entry): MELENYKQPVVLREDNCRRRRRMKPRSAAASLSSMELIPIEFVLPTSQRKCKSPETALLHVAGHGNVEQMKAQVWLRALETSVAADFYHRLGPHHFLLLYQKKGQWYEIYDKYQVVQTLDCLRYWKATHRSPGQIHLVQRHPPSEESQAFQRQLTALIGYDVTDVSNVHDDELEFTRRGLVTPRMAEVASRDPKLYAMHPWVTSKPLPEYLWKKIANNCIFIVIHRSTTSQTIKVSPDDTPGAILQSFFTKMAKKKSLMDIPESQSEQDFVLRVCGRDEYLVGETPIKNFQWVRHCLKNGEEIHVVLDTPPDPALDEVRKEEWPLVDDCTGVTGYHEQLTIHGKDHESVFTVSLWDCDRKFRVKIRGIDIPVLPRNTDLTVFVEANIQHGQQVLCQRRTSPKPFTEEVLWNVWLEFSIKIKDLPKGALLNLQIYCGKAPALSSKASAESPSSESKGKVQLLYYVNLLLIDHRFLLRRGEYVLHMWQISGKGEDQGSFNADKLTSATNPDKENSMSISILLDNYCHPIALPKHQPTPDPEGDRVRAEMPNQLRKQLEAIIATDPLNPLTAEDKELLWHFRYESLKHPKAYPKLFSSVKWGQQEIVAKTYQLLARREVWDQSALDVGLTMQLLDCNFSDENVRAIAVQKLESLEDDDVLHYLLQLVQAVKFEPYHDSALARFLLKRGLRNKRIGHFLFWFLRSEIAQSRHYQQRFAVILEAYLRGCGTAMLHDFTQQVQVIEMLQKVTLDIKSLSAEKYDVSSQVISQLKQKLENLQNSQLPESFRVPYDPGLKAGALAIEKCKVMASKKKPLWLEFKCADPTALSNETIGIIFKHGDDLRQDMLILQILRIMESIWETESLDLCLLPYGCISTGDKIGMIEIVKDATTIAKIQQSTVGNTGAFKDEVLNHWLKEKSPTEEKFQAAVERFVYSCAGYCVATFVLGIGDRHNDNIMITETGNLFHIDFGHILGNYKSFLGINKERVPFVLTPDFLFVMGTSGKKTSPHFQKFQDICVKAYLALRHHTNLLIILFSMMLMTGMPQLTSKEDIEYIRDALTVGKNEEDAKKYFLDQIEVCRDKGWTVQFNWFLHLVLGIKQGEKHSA
Description: Promega ADP-Glo Max assay kit (Cat. No. V7002) was utilized to determine IC50 values for α, β, δ and γ isoforms of human Class I PI3 kinases (Millipore). […] Reactions were incubated at room temperature for 2 hours followed by addition of 25 uL of stop solution. After a 40-minute incubation at room temperature, 50 uL of Promega detection mix was added followed by incubation for 1 hour at room temperature. Plates were then read on Envision plate reader in luminescence mode. Data was converted to % inhibition using the following equation below:
[formula] where S is the sample luminescence, Pos is a positive control without added PI3K, Neg is the negative control without added compound. Data was then plotted as % inhibition vs compound concentration.
(§1) Certain compounds provided herein were tested in PI3-Kinase Promega Assay using procedures as described above to determine IC50 values for α, β, δ and/or γ isoforms.

RAJI p110 δ = RAJI p110 δ (Homo sapiens, UniProt O00329); test: RAJI p110 δ cellular assay (phospho-AKT);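 note: potency based on lowered phosphorylated AKT in RAJI cells, as a readout of PI3K-δ dependent B-cell receptor signaling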
Source text: (a) PI3K-δ Selective Assay
Reduction of phospho-AKT is indicative of compounds that may inhibit B-cell proliferation and function in certain diseases.

PI3K δ = target: T3, PI3K δ (Homo sapiens, UniProt O00329); test: PI3-Kinase Promega ADP-Glo Max assay; assay type: biochemical; conditions: 20 nM kinase, 3 mM ATP, 500 uM diC8-PtdInsP
T3 construct: purchased Millipore
T3 sequence (O00329 whole entry): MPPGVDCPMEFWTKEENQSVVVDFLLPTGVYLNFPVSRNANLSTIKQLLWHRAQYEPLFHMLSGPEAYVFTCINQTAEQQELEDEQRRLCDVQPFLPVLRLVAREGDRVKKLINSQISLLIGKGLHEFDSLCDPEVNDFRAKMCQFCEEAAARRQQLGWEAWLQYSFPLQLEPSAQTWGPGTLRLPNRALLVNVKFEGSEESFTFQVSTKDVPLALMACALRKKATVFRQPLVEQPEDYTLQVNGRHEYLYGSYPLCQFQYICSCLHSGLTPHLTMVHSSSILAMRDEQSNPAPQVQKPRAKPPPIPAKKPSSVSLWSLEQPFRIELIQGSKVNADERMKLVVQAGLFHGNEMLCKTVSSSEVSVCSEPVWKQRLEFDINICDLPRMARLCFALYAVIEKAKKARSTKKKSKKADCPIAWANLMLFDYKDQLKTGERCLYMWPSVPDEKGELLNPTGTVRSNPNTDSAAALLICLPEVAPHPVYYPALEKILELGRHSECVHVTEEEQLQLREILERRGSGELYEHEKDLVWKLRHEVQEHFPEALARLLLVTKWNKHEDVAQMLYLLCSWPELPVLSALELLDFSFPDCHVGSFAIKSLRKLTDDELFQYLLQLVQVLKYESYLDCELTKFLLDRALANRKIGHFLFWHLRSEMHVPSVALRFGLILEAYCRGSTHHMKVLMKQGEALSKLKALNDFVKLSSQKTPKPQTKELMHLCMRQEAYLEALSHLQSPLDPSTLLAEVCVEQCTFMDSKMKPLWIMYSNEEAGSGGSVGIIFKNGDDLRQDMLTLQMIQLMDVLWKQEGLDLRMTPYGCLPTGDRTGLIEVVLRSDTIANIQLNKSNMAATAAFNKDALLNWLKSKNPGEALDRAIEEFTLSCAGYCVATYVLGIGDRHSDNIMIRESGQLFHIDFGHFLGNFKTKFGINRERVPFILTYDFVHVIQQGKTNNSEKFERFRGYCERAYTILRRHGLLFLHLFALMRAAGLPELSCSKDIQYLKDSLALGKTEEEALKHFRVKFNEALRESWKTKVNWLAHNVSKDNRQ
T3 sequence (P27986 whole entry partner): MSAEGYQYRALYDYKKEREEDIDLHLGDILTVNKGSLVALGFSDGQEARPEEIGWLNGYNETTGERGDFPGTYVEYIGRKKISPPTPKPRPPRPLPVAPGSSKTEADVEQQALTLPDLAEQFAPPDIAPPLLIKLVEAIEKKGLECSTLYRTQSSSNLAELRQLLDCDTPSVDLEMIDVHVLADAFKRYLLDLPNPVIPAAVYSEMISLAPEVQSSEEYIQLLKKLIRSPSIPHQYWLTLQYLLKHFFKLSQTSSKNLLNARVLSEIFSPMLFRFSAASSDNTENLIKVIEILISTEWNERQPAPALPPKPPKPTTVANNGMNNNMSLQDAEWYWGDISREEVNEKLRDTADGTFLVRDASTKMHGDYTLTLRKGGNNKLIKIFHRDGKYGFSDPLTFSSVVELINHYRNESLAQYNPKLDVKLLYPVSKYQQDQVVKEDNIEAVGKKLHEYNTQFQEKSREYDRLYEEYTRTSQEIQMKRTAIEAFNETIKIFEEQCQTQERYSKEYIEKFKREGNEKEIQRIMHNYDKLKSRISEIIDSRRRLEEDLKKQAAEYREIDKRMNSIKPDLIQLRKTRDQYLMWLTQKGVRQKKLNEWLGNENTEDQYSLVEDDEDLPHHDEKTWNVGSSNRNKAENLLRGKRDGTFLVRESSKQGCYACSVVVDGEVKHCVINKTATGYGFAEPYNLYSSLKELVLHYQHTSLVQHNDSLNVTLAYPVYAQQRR
Description: (§2) Promega ADP-Glo Max assay kit (Cat. No. V7002) was utilized to determine IC50 values for α, β, δ and γ isoforms of human Class I PI3 kinases (Millipore). Samples of kinase (20 nM α or δ, 40 nM β or γ isoform) were incubated with compound for 15 minutes at room temperature in reaction buffer (15 mM HEPES pH 7.4, 20 mM NaCl, 1 mM EGTA, 0.02% Tween 20, 10 mM MgCl2, 0.2 mg/mL bovine-γ-globulins) followed by addition of ATP/diC8-PtdInsP mixture to give final concentrations of 3 mM ATP and 500 uM diC8-PtdInsP. Reactions were incubated at room temperature for 2 hours followed by addition of 25 uL of stop solution. After a 40-minute incubation at room temperature, 50 uL of Promega detection mix was added followed by incubation for 1 hour at room temperature. Plates were then read on Envision plate reader in luminescence mode. Data was converted to % inhibition using the following equation below:
(§3) [formula] where S is the sample luminescence, Pos is a positive control without added PI3K, Neg is the negative control without added compound. Data was then plotted as % inhibition vs compound concentration. Data fit to 4 parameter logistic equation to determine IC50 values: […]
as §1

PI3K α = target: T4, PI3K α (Homo sapiens, UniProt P42336); test: PI3-Kinase Promega ADP-Glo Max assay; assay type: biochemical; conditions: 20 nM kinase, 3 mM ATP, 500 uM diC8-PtdInsP
T4 construct: purchased Millipore
Description: as §2, §3, §1

PI3K β = target: T5, PI3K β (Homo sapiens, UniProt P42338); test: PI3-Kinase Promega ADP-Glo Max assay; assay type: biochemical; conditions: 40 nM kinase, 3 mM ATP, 500 uM diC8-PtdInsP
T5 construct: purchased Millipore
T5 sequence (P42338 whole entry): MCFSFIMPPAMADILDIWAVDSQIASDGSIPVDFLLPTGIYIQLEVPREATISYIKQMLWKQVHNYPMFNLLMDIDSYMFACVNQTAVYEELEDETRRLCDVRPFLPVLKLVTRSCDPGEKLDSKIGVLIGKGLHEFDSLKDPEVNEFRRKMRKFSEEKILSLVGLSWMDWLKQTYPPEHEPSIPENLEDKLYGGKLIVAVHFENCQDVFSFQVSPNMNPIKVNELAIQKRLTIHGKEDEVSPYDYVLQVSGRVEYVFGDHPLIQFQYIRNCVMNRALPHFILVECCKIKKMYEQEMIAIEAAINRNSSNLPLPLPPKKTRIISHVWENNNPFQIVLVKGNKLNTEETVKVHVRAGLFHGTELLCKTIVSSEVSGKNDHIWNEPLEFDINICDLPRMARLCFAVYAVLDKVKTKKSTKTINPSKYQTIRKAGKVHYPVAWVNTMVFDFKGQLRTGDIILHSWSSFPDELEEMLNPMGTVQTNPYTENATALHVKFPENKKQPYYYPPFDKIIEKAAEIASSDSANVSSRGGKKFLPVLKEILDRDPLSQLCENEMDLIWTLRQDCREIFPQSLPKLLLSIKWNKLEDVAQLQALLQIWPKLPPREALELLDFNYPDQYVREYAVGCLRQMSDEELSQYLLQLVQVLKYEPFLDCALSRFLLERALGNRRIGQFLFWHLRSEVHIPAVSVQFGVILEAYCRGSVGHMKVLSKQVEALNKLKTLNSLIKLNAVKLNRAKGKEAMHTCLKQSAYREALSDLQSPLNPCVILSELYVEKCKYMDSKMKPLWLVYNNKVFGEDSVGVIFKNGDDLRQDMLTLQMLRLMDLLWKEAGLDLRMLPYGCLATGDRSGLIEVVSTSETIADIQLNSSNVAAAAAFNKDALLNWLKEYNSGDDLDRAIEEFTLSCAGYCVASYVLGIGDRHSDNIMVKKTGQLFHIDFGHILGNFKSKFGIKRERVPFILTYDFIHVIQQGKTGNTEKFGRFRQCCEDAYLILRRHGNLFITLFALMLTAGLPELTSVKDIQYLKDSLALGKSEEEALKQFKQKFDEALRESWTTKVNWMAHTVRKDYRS
T5 sequence (P27986 whole entry partner): as the sequence (P27986 whole entry partner) above
Description: as §2, §3, §1

T1 sequence (Q9JHG7 whole entry): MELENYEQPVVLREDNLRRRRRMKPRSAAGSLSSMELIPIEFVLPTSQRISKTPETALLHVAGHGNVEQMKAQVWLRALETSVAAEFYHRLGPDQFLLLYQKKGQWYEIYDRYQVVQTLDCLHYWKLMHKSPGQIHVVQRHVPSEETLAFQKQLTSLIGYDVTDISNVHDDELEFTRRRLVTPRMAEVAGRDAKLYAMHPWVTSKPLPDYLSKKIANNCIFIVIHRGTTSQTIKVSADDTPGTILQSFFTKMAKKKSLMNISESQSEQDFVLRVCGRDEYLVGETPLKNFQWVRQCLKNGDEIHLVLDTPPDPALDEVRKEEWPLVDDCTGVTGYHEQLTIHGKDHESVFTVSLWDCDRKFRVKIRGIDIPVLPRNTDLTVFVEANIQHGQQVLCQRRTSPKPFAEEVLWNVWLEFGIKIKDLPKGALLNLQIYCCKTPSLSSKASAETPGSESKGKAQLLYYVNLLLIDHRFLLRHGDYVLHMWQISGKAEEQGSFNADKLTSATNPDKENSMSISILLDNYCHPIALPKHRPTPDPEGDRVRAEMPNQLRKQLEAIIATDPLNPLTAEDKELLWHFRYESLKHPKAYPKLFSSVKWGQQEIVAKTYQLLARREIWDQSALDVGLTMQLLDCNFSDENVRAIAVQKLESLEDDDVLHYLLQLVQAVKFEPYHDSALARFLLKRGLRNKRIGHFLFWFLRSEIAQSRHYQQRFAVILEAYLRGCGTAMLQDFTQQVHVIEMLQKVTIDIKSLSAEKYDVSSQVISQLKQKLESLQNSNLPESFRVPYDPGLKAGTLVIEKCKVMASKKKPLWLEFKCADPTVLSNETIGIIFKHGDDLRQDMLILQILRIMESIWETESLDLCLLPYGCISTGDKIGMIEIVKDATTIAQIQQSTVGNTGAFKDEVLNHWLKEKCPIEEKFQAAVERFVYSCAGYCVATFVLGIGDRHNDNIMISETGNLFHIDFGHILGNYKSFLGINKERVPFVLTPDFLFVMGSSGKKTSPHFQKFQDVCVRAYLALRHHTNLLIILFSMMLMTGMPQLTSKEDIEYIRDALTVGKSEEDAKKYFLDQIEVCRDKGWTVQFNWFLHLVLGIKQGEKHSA

| Compound | pIC50 (Raw264.7 p110 γ) | pIC50 (PI3K γ) | pIC50 (RAJI p110 δ) | pIC50 (PI3K δ) | pIC50 (PI3K α) | pIC50 (PI3K β) |
| --- | --- | --- | --- | --- | --- | --- |
| C[C@H](NC(=O)c1cccnc1N)c1cc2cccc(Cl)c2c(=O)n1-c1ccccc1 [Compound 3] | 5.00 to 6.00 |  |  |  |  |  |
| C[C@H](NC(=O)c1cnccn1)c1cc2cccc(Cl)c2c(=O)n1-c1ccccc1 [Compound 14] | < 5.00 |  |  |  |  |  |
| C[C@H](NC(=O)c1nc(Br)cnc1N)c1cc2cccc(Cl)c2c(=O)n1-c1ccccc1 [Compound 15] | < 5.00 |  |  |  |  |  |
| C[C@H](NC(=O)c1nc(-c2ccccc2)cnc1N)c1cc2cccc(Cl)c2c(=O)n1-c1ccccc1 [Compound 42] | 5.00 to 6.00 | 5.00 to 6.00 | 6.00 to 7.00 | < 5.00 | < 5.00 | < 5.00 |
| C[C@H](NC(=O)c1cncc2cccnc12)c1cc2cccc(C(F)(F)F)c2c(=O)n1-c1ccccc1 [Compound 67] | > 7.00 |  | > 7.00 |  |  |  |
| C[C@H](NC(=O)c1csc2cccnc12)c1cc2cccc(Cl)c2c(=O)n1-c1ccccc1 [Compound 68] | 5.00 to 6.00 |  | 5.00 to 6.00 |  |  |  |
| COC(=O)c1ncsc1-c1cccc2cc([C@H](C)NC(=O)c3c(N)nn4cccnc34)n(-c3ccccc3)c(=O)c12 [Compound 248] |  | 5.00 to 6.00 |  | < 5.00 | < 5.00 | < 5.00 |
| C[C@H](NC(=O)c1nc(-c2cccc(NS(C)(=O)=O)c2)cnc1N)c1cc2cccc(N3CCOCC3)c2c(=O)n1-c1ccccc1 [Compound 263] |  | 5.00 to 6.00 |  | < 5.00 | < 5.00 | < 5.00 |
| C[C@H](NC(=O)c1c(N)nn2cccnc12)c1cc2cccc(N3CCN(C)CC3)c2c(=O)n1-c1ccccc1 [Compound 264] |  | < 5.00 |  | < 5.00 | < 5.00 | < 5.00 |
| C[C@H](NC(=O)c1c(N)nn2cccnc12)c1cc2cccc(NC3CCCCC3)c2c(=O)n1-c1ccccc1 [Compound 265] |  | < 5.00 |  | < 5.00 | < 5.00 | < 5.00 |
| CC(C)Nc1cccc2cc([C@H](C)NC(=O)c3c(N)nn4cccnc34)n(-c3ccccc3)c(=O)c12 [Compound 268] |  | < 5.00 |  | < 5.00 | < 5.00 | < 5.00 |
| Nc1nn2cccnc2c1C(=O)NCc1cc2cccc(Cl)c2c(=O)n1-c1ccccc1 [Compound 274] |  | < 5.00 |  | < 5.00 | < 5.00 | < 5.00 |
| C[C@H](NC(=O)c1c(N)nn2cccnc12)c1nn2ccc(Cl)c2c(=O)n1-c1ccccc1 [Compound 286] |  | < 5.00 |  | < 5.00 | < 5.00 | < 5.00 |
| C[C@H](NC(=O)c1c(N)nn2cccnc12)c1nn2ccc(-c3cnn(C)c3)c2c(=O)n1-c1ccccc1 [Compound 287] |  | < 5.00 |  | < 5.00 | < 5.00 | < 5.00 |
| C[C@H](NC(=O)c1c(N)nn2cccnc12)c1cc2cccc(Cl)c2c(=O)n1CC(=O)N(C)C [Compound 296] |  | < 5.00 |  | < 5.00 | < 5.00 | 5.00 to 6.00 |
| C[C@H](NC(=O)c1c(N)nn2cccnc12)c1cc2cccc(OC(F)(F)F)c2c(=O)n1-c1ccccc1 [Compound 302] |  | 5.00 to 6.00 |  | 5.00 to 6.00 | < 5.00 | < 5.00 |
| C[C@H](NC(=O)c1c(N)nn2cccnc12)C1Cc2cccc(F)c2C(=O)N1c1ccccc1 (stereo partly shown) [Compound 304] |  | < 5.00 |  | < 5.00 | < 5.00 | < 5.00 |
| C[C@H](NC(=O)c1cc(-c2cccc(NS(C)(=O)=O)c2)cnc1N)c1cc2cccc(Cl)c2c(=O)n1-c1ccccc1 [Compound 306] |  | < 5.00 |  | < 5.00 | < 5.00 | < 5.00 |
| C[C@H](NC(=O)c1c(N)nn2c1NCCC2)c1cc2cccc(Cl)c2c(=O)n1-c1ccccc1 [Compound 307] |  | < 5.00 |  | < 5.00 | < 5.00 | < 5.00 |

Now from value to compound:

| pIC50 (Raw264.7 p110 γ) | pIC50 (PI3K γ) | pIC50 (RAJI p110 δ) | pIC50 (PI3K δ) | pIC50 (PI3K α) | pIC50 (PI3K β) | Compound |
| --- | --- | --- | --- | --- | --- | --- |
| > 7.00 | 6.00 to 7.00 | > 7.00 | > 7.00 | 5.00 to 6.00 | 6.00 to 7.00 | C[C@H](NC(=O)c1nccnc1N)c1cc2cccc(Cl)c2c(=O)n1-c1ccccc1 [Compound 4, (S)-3-amino-N-(1-(8-chloro-1-oxo-2-phenyl-1,2-dihydroisoquinolin-3-yl)ethyl)pyrazine-2-carboxamide] |
| 6.00 to 7.00 | 5.00 to 6.00 | 6.00 to 7.00 | 6.00 to 7.00 |  | 5.00 to 6.00 | C[C@H](NC(=O)c1cnc2cccnn12)c1cc2cccc(Cl)c2c(=O)n1-c1ccccc1 [Compound 13] |
| > 7.00 | 6.00 to 7.00 | > 7.00 | 6.00 to 7.00 | < 5.00 | 6.00 to 7.00 | C[C@H](NC(=O)c1nccnc1N)c1cc2cccc(Cl)c2c(=O)n1-c1ccc(F)cc1 [Compound 19] |
| 6.00 to 7.00 | 5.00 to 6.00 | > 7.00 | 5.00 to 6.00 | 5.00 to 6.00 | 5.00 to 6.00 | C[C@H](NC(=O)c1cnc2cccnn12)c1cc2cccc(Cl)c2c(=O)n1-c1ccc(F)cc1 [Compound 20] |
| 6.00 to 7.00 | 5.00 to 6.00 | 6.00 to 7.00 | 5.00 to 6.00 | < 5.00 | 5.00 to 6.00 | C[C@H](NC(=O)c1cnn2cccnc12)c1cc2cccc(Cl)c2c(=O)n1-c1ccccc1 [Compound 22] |
|  |  | > 7.00 | 6.00 to 7.00 | 5.00 to 6.00 | 6.00 to 7.00 | C[C@H](NC(=O)c1c(N)nn2cccnc12)c1cc2cccc(Cl)c2c(=O)n1-c1ccccc1 [Compound 70] |
| > 7.00 | 6.00 to 7.00 | 6.00 to 7.00 | 5.00 to 6.00 |  | 5.00 to 6.00 | C[C@H](NC(=O)c1nc(-c2cccc(S(C)(=O)=O)c2)cnc1N)c1cc2cccc(Cl)c2c(=O)n1-c1ccccc1 [Compound 84] |
|  | 5.00 to 6.00 |  | 6.00 to 7.00 | 5.00 to 6.00 | > 7.00 | C[C@H](NC(=O)c1c(N)nn2cccnc12)c1cc2cccc(Cl)c2c(=O)n1CCNCCO [Compound 243] |
|  | 6.00 to 7.00 |  | 5.00 to 6.00 | < 5.00 | < 5.00 | COc1ncc(-c2cccc3cc([C@H](C)NC(=O)c4c(N)nn5cccnc45)n(-c4ccccc4)c(=O)c23)s1 [Compound 246] |
|  | 6.00 to 7.00 |  | 5.00 to 6.00 | 5.00 to 6.00 | < 5.00 | CC(=O)Nc1ncc(-c2cccc3cc([C@H](C)NC(=O)c4c(N)nn5cccnc45)n(-c4ccccc4)c(=O)c23)s1 [Compound 247] |
|  | 6.00 to 7.00 |  | 5.00 to 6.00 | 5.00 to 6.00 | 5.00 to 6.00 | C[C@H](NC(=O)c1c(N)nn2cccnc12)c1c(Br)c2cccc(F)c2c(=O)n1-c1ccccc1 [Compound 255] |
|  | 6.00 to 7.00 |  | 5.00 to 6.00 | < 5.00 | < 5.00 | COc1cccc2c(Br)c([C@H](C)NC(=O)c3c(N)nn4cccnc34)n(-c3ccccc3)c(=O)c12 [Compound 256] |
|  | 6.00 to 7.00 |  | 5.00 to 6.00 | < 5.00 | < 5.00 | COc1cccc2c(C)c([C@H](C)NC(=O)c3c(N)nn4cccnc34)n(-c3ccccc3)c(=O)c12 [Compound 261] |
|  | 5.00 to 6.00 |  | 5.00 to 6.00 | < 5.00 | < 5.00 | Cc1cnc(C(=O)N[C@@H](C)c2c(Br)c3cccc(Cl)c3c(=O)n2-c2ccccc2)c(N)n1 [Compound 288] |
|  | 6.00 to 7.00 |  | > 7.00 | < 5.00 | 5.00 to 6.00 | C[C@H](NC(=O)c1nccnc1N)c1nc2cccc(Cl)c2c(=O)n1-c1ccccc1 [Compound 289] |
|  | 5.00 to 6.00 |  | 5.00 to 6.00 | < 5.00 | 5.00 to 6.00 | C[C@H](NC(=O)c1c(N)oc2cccnc12)c1cc2cccc(Cl)c2c(=O)n1-c1ccccc1 [Compound 298] |
